Data taken from patent US7071168B2, “Anti-cancer compounds and methods related thereto” (The Regents of the University of Colorado, priority 1998, dated 2006).

Tests used:
[1] = tested on: SCLC strain SHP-77; test: Colorimetric tetrazolium (MTT) assay for cell survival, SCLC strain SHP-77; assay type: cell-based, human
Procedure, shortened: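 MTT assay: cells seeded overnight, treated in triplicate across a concentration range for 4 days at 37 °C, 5% CO2. On day 5, MTT was added for 4 h; formazan was dissolved in acidified isopropanol and absorbance read.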

[2] = tested on: bradykinin response of isolated guinea pig ileum; test: Anti-bradykinin activity on isolated guinea pig ileum
Procedure, shortened: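 Bradykinin concentration-effect curves were run in the absence and presence of compound. Tissue: 25 mm terminal ileum from male Hartley guinea pigs fasted overnight, held at 1 g tension in O2/CO2-bubbled Krebs' solution after 1 h equilibration.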

[3] = isolated guinea pig ileum, pD2 of bradykinin is 7.4, higher numbers indicate higher potency
[4] = Table 1, higher numbers indicate higher potency

Compound	MTT: ED50 for killing of SCLC strain SHP-77 in vitro ([1]; SCLC strain SHP-77 in vitro)	GPI: pA2 for bradykinin antagonist activity on isolated guinea pig ileum [2, 3]	MTT: ED50 for killing of SCLC strain SHP-77 in vitro ([1]; Table 1, SHP-77, MTT, 4 days)	GPI: pA2 for bradykinin antagonist activity on isolated guinea pig ileum [2, 4]	also measured
CC1CN(C(=O)[C@H](Cc2ccc3ccccc3c2)NC(=N)CCCCCCCCCCCCC(=N)N[C@@H](Cc2ccc3ccccc3c2)C(=O)N2CC(C)OC(C)C2)CC(C)O1 (some centres unmarked) [M304]	4.2 µM	5.9	–	–	–
c[DArg-Arg-Aud-DIgl-PFF-Arg] [M850]	–	–	–	–	MTT: ED50 for killing of SCLC strain SHP-77 in vitro ([1]; Table 3, cyclic peptides): 1.4 µM; GPI: pA2 for bradykinin antagonist activity on isolated guinea pig ileum ([2]; Table 3, cyclic peptides): 5.1
DDD-(p-ABz-hPhe-Arg)2 [M552]	–	–	Inact	Inact	–
O=C(NC1CN2CCC1CC2)C(Cc1ccc2ccccc2c1)NC(=NC1CCCCC1)NC1CCCCC1 (centres unmarked) [M18]	30 µM	6.6	–	–	–
CC1(C)CC(NC(=O)[C@H](Cc2ccc3ccccc3c2)NC(=O)C=Cc2c(F)c(F)c(F)c(F)c2F)CC(C)(C)N1 [M248]	3.2 µM	6.2	–	–	–
CN(C(=O)[C@H](Cc1ccc(OCc2c(Cl)cccc2Cl)cc1)NC(=O)c1nc(Cl)c(Cl)c(N)c1Cl)C1CC(C)(C)NC(C)(C)C1 [M632]	1.4 µM	5.4	–	–	–
DDD-(DArg-PFF-Arg)2 [M820]	–	–	43 µM	Inact	–
CN(C(=O)C(Cc1cc(I)c(OCc2c(Cl)cccc2Cl)c(I)c1)NC(=O)C=Cc1c(F)c(F)c(F)c(F)c1F)C1CC(C)(C)NC(C)(C)C1 (centres unmarked) [M664]	1.2 µM	5.0	–	–	–
CN(C)c1cccc2c(S(=O)(=O)NC(Cc3cc(I)c(OCc4c(Cl)cccc4Cl)c(I)c3)C(=O)N(C)C3CC(C)(C)NC(C)(C)C3)cccc12 (centres unmarked) [M666]	1.3 µM	5.0	–	–	–
CC1(C)CC(NC(=O)C(Cc2ccc3ccccc3c2)NC(=O)C=Cc2ccc(N)cc2)CC(C)(C)N1 (centres unmarked) [M308]	>75 µM	5.0	–	–	–
DDD-(DArg-2Nal-Arg)2 [M508]	–	–	23 µM	Inact	–
CC1=C(CC(=O)NC(Cc2ccc3ccccc3c2)C(=O)NC2CC(C)(C)NC(C)(C)C2)c2cc(F)ccc2C1=Cc1ccc([S+](C)[O-])cc1 (centres unmarked) [M656]	13 µM	5.4	–	–	–
c[Ava-Igl-Ser-DF5F-Oic-Arg] [M824]	–	–	–	–	MTT: ED50 for killing of SCLC strain SHP-77 in vitro ([1]; Table 3, cyclic peptides): Inact; GPI: pA2 for bradykinin antagonist activity on isolated guinea pig ileum ([2]; Table 3, cyclic peptides): 5.2
D-Arg-Arg-Aud-PaF(F5c)-Arg [M726]	–	–	Inact	5.6	–
EGS-(DArg-Arg-Eac-Ser-DF5F-Nc7G-Arg)2 [M1030]	–	–	51 µM	7.0	–
DArg-Arg-Pro-Hyp-Gly-Igl-Ser-DIgl-Oic-Arg-NH2 [B10062]	–	–	Inact	7.1	–
CC1(C)CC(NC(=O)Cc2ccc(NC(=NC3CCCCC3)NC3CCCCC3)cc2)CC(C)(C)N1 [M266]	42 µM	4.8	–	–	–
CC1(C)CC(NC(=O)C(Cc2ccc(OCc3ccccc3)cc2)NC(=O)C=Cc2c(F)c(F)c(F)c(F)c2F)CC(C)(C)N1 (centres unmarked) [M318]	3.6 µM	5.1	–	–	–
CC1(C)CC(NC(=O)[C@@H](Cc2ccc3ccccc3c2)NC(=NC2CCCCC2)NC2CCCCC2)CC(C)(C)N1 [M246]	>50 µM	5.7	–	–	–
Aaa-DPhe-hPhe-Arg [M754]	–	–	Inact	4.6	–
DDD-(Eac-Eac-Arg-DIgl-Oic-Arg)2 [B10200]	–	–	16 µM	5.8	–
CC1(C)CC(NC(=O)[C@@H](NC(=N)CCCCCCCCCCCCC(=N)N[C@H](C(=O)NC2CC(C)(C)NC(C)(C)C2)C2Cc3ccccc3C2)C2Cc3ccccc3C2)CC(C)(C)N1 [M280]	6 µM	5.2	–	–	–
DDD-(DArg-F5F-DArg)2 [M1036]	–	–	40 µM	5.4	–
Ac-Darg-Arg-Aud-DF5F-Oic-Arg [M868]	–	–	55 µM	6.5	–
Moti-DArg-Arg-Pro-Hyp-Gly-Igl-Ser-DIgl-Oic-Arg [B10100-1]	–	–	4 µM	7.8	–
F5c-DArg-Arg-Add-Ser-DIgl-Oic-Arg [M860]	–	–	6 µM	5.4	–

Compound	MTT: ED50 for killing of SCLC strain SHP-77 in vitro ([1]; SCLC strain SHP-77 in vitro)	GPI: pA2 for bradykinin antagonist activity on isolated guinea pig ileum [2, 3]	MTT: ED50 for killing of SCLC strain SHP-77 in vitro ([1]; Table 1, SHP-77, MTT, 4 days)	GPI: pA2 for bradykinin antagonist activity on isolated guinea pig ileum [2, 4]	also measured
c[DArg-Arg-Ava-Ser-DF5F-Oic-Arg] [M908]	–	–	–	–	MTT: ED50 for killing of SCLC strain SHP-77 in vitro ([1]; Table 3, cyclic peptides): 40 µM; GPI: pA2 for bradykinin antagonist activity on isolated guinea pig ileum ([2]; Table 3, cyclic peptides): 4.9
DDD-(DArg-Arg-Eac-Ser-DTic-Oic-Arg)2 [M794]	–	–	21 µM	Inact	–
CCOC(=O)N1CCC(NC(=O)C(Cc2ccc3ccccc3c2)NC(=O)C=Cc2ccc(N)cc2)CC1 (centres unmarked) [M604]	43 µM	4.5	–	–	–
CC1(C)CC(NC(=O)[C@@H](Cc2ccc3ccccc3c2)NC(=NC2CCCCC2)NC2CCCCC2)CC(C)(C)N1 [M262]	6 µM	5.3	–	–	–
DDD-(DIgl-hPhe-Arg)2 [M776]	–	–	30 µM	5	–
CC1(C)C=C(C(=O)NCCNC(=O)C(Cc2ccc3ccccc3c2)NC(=O)C=Cc2c(F)c(F)c(F)c(F)c2F)C(C)(C)N1 (centres unmarked) [M268]	10 µM	5.2	–	–	–
Cc1cc(NC(=O)C(Cc2ccc3ccccc3c2)NC(=O)C=Cc2c(F)c(F)c(F)c(F)c2F)c2ccccc2n1 (centres unmarked) [M314]	25 µM	4.6	–	–	–
F5c-Gly-mABz-2Nal-Arg [M196]	–	–	Inact	5.1	–
CN(C)c1ccc(CNC(=O)C(Cc2ccc(F)cc2)NC(=O)C=Cc2c(F)c(F)c(F)c(F)c2F)cc1 (centres unmarked) [M832]	47 µM	4.6	–	–	–
c[DArg-Arg-Aud-Ser-DF5F-Oic-Arg] [M876]	–	–	–	–	MTT: ED50 for killing of SCLC strain SHP-77 in vitro ([1]; Table 3, cyclic peptides): 22.5 µM; GPI: pA2 for bradykinin antagonist activity on isolated guinea pig ileum ([2]; Table 3, cyclic peptides): 5.4
F5c-PFF-Arg [M718]	–	–	9 µM	5.1	–
DDD-(DArg-Arg-Add-Ser-DIgl-PFF-Arg)2 [M864]	–	–	1.8 µM	Inact	–
F5c-DArg-Eac-2Nal-Arg [M696]	–	–	Inact	5.1	–
EGS-(DArg-Arg-Pro-Hyp-Gly-Igl-Ser-DIgl-Oic-Arg)2 [B10252]	–	–	25 µM	8.3	–
F5c-DArg-Arg-Eac-Ser-DF5F-Oic-Arg [M796]	–	–	31 µM	6.5	–
F5c-DArg-Eac-hPhe-Arg [M738]	–	–	Inact	5.3	–
Leu-Leu-DTrp-Phe-DTrp-DNMF-Eac2-DArg-Arg-Pro-Hyp-Gly-Igl-Ser-Digl-Oic-Arg [B10162]	–	–	7 µM	6.3	–
COC(=O)C1(NC(=O)[C@H](Cc2ccc3ccccc3c2)NC(=NC2CCCCC2)NC2CCCCC2)CC(C)(C)NC(C)(C)C1 [M244A]	12 µM	5.0	–	–	–
F5c-DArg-Arg-Aud-DIgl-PFF-Arg [M838]	–	–	7.4 µM	5.1	–
CC1(C)CC(NC(=O)[C@H](Cc2ccc3ccccc3c2)NC(=O)C(c2ccccc2)c2ccccc2)CC(C)(C)N1 [M272]	9 µM	5.2	–	–	–
Ava-Igl-Ser-DF5F-Oic-Arg [M806]	–	–	Inact	5.6	–
F5c-DArg-Arg-Aud-Ser-D5F5-Oic-Arg [M888]	–	–	12.5 µM	6.6	–
CC1(C)CC(NC(=O)C(NC(=O)C=Cc2c(F)c(F)c(F)c(F)c2F)C(C)(C)C)CC(C)(C)N1 (centres unmarked) [M662]	Inact	5.2	–	–	–
Dcg-F5F-Arg [M130]	–	–	20 µM	4.8	–
F5c-DArg-Arg-Pro-Hyp-Gly-Igl-Ser-DIgl-Oic-Arg [B10238]	–	–	150 µM	8.1	–
DDD-(Pac-2Nal-DArg-NH2)2 [M504]	–	–	11 µM	5.4	–
